Experiment: xn = mol fraction of the nth substance listed
Settings: 101 kPa, Liquid; for viscosity: Capillary tube (Ostwald / Ubbelohde) method; for mass density: Pycnometric method

CC1OC(C)OC(C)O1 (centres undefined) [2,4,6-trimethyl-1,3,5-trioxane] + CCCCOC(C)=O
Settings	mass density, 298.15 K [kg/m3]	mass density, 303.15 K [kg/m3]	mass density, 308.15 K [kg/m3]	viscosity, 298.15 K [mPa·s]	viscosity, 303.15 K [mPa·s]	viscosity, 308.15 K [mPa·s]
x1 = 0.0186	878.3	873.2	868.2	0.688	0.637	0.581
x1 = 0.0368	880.3	875.1	870.1	0.693	0.641	0.586
x1 = 0.0556	882.3	877.1	872	0.696	0.646	0.588
x1 = 0.0744	884.3	879.1	874	0.697	0.65	0.592
x1 = 0.093	886.3	881	875.9	0.699	0.653	0.594
x1 = 0.1873	896.5	891.1	885.7	0.713	0.668	0.612
x1 = 0.2831	906.9	901.4	895.9	0.728	0.685	0.629
x1 = 0.3807	917.7	912	906.4	0.755	0.706	0.649
x1 = 0.4799	928.6	922.9	917.2	0.786	0.735	0.676
x1 = 0.5802	939.8	934.1	928.2	0.831	0.771	0.708
x1 = 0.6828	951.5	945.7	939.7	0.882	0.816	0.746
x1 = 0.7863	963.2	957.6	951.4	0.945	0.867	0.793
x1 = 0.8924	975.6	969.9	963.7	1.025	0.933	0.848
x1 = 1	988.4	982.6	976.4	1.107	1.001	0.907

From the NIST ThermoML archive (doi:10.1016/j.jct.2006.03.014)
